Measured values from patent US20120294871A1, “MODULATION OF GPCR-MEDIATED CAMP PRODUCTION THROUGH LRP6 AND ITS THERAPEUTIC APPLICATION” (THE JOHNS HOPKINS UNIVERSITY, priority 2011, published 2012).

Columns and labels:
LRP6-Gαs interaction = assay: Coimmunoprecipitation and Western blotting of LRP6-associated G proteins in HEK 293 cells; format: cell-based, human
Experimental: (§1) Cell Culture, Transfections, Coimmunoprecipitation, and Western Blotting Analysis. HEK293,UMR-106,C2C12, and MEF cells were maintained in Dulbecco's modified Eagle's medium (DMEM) with 10% fetal calf serum (FCS). Transfections were performed with Lipofectamine reagent (Invitrogen). Immunoprecipitations and Western blotting analysis of cell lysates were performed as described previously (37). Briefly, cells were lysed in immunoprecipitation buffer [50 mM tris-HCl (pH7.5), 150 mM NaCl, 1% Triton X-100, and 0.5% sodium deoxycholate containing protease inhibitors. The lysates were subjected to immunoprecipitation by incubation with the appropriate antibodies followed by absorption on protein G-Sepharose. The immunoprecipitates were separated by SDS-polyacrylamide gel electrophoresis (SDS-PAGE) and transferred onto a nitrocellulose membrane. Western blots were characterized with the SuperSignal West Femto Substrate system (Pierce, Thermo Fisher Scientific Inc.). Primary antibodies used for Western blotting analysis and immunoprecipitations included mouse antibody against the FLAG tag (M2, Sigma-Aldrich), rabbit antibody against VSVG (Covance), mouse antibody against the HA tag (16B12, Covance), rabbit antibody against PTH1R, (PRB-640P, Covance), rabbit antibodies against CREB and phosphorylated CREB (pCREB) (both from Upstate), and rabbit antibody against Gαs and mouse antibody against Gb1 (both from Santa Cruz Biotechnology).

[1] = system: GST-fused cytoplasmic domain of LRP6 with the GSK-3 site mutated (Ser1544 to Ala)
[2] = system: GST-fused cytoplasmic domain of LRP6 with the PKA site mutated (Thr1548 to Ala)
[3] = system: T1, Glutathione S-transferase (GST)-fused cytoplasmic domain of LRP6
T1 sequence: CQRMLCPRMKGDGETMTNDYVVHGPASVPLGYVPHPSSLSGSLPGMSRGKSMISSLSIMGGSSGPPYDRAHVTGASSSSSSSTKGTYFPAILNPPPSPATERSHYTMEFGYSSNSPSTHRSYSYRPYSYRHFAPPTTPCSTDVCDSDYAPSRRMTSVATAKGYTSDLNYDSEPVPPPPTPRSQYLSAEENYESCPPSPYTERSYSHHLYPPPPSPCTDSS

[4] = system: Glutathione S-transferase (GST)-fused cytoplasmic domain of LRP5 [GST: P08515]
Sequence of Glutathione S-transferase (GST)-fused cytoplasmic domain of LRP5 [GST: P08515] (P08515 whole entry, looked up, the tested form may be a part): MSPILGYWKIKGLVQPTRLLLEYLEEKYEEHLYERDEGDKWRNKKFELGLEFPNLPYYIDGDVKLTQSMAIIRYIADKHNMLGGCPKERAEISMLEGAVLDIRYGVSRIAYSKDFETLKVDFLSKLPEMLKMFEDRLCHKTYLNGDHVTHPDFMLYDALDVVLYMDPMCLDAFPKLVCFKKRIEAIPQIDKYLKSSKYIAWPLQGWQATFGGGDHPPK

cAMP production = assay: ICUE3 FRET biosensor, cAMP kinetics in live HEK 293 cells; format: cell-based, human; conditions: PTH(1-34) 50 nM
Source text: Detection of the Temporal Dynamics of cAMP Signaling in Living Cells. The binding of cAMP to Epac induces a conformational change that liberates the catalytic domain of Epac from intrasubunit allosteric inhibition (42). A chimeric protein (ICUE3) generated by fusing the N terminus of a truncated form of Epac to enhanced CFP (ECFP) and the C terminus of Epac to citrine, an improved version of yellow fluorescent protein (YFP), was produced as previously described (43). Sandwiching these conformationally responsive elements of Epac between a FRET pair (citrine and ECFP) enables cAMP production and degradation to be monitored by detecting changes in FRET. Therefore, changes in cAMP could be monitored in real time in single live cells. Experiments were performed as previously described (41). […] The ratios of cyan-to-yellow emissions were then calculated at different time points and normalized by dividing all of the ratios by the emission ratio just before stimulation, thereby setting the basal emission ratio to 1. […] The fluorescence intensities of ECFP before (Fda) and after (Fd) citrine photobleaching and the equation E=1−(Fda/Fd) were used to calculate the FRET efficiency.

LRP5-Gαs interaction = assay: Coimmunoprecipitation and Western blotting of LRP5-associated Gαs in HEK 293 cells; format: cell-based, human; conditions: HEK 293 cells with PTH1R and HA-tagged LRP5, PTH(1-34) 50 nM
Experimental: as §1, with “Primary antibodies used for Western blotting analysis and immunoprecipitations included mouse antibody against the FLAG tag (M2, Sigma-Aldrich), rabbit antibody against VSVG (Covance), mouse antibody against the HA tag (16B12, Covance), rabbit antibody against PTH1R, (PRB-640P, Covance), rabbit antibodies against CREB and phosphorylated CREB (pCREB) (both from Upstate), and rabbit antibody against Gαs and mouse antibody against Gb1 (both from Santa Cruz Biotechnology).” left out

[5] = target: T2, VSVG-tagged LRP6 (wild type) (human, UniProt O75581 20-1613); assay: co-immunoprecipitation and Western blotting, HEK 293 cells
T2 construct: also called WT-LRP6; WT LRP6; not shown: VSVG tag

[6] = lysis buffer containing AlF4− (100 mM AlCl3, 10 mM NaF)

5′-UGCCAAGAAGGCUGAGUCG-3′ (listed as RNA, chemistry not given here) [siRNA specific for axin]
PTH-induced interaction between Gαs and LRP6 (LRP6-Gαs interaction; knockdown of axin vs scrambled control siRNA, PTH(1-34) 50 nM): not affected

Recombinant GSK-3
in vitro kinase assay (sequential PKA and GSK-3) [1]: Both mutants abolished the phosphorylation of LRP6 by GSK-3 | in vitro kinase assay (sequential PKA and GSK-3) [2]: Both mutants abolished the phosphorylation of LRP6 by GSK-3 | in vitro kinase assay (PKA with cold ATP, then GSK-3 with [γ-32P]ATP) [3]: pretreatment with recombinant PKA enhanced the phosphorylation of LRP6 by GSK-3

Recombinant catalytic subunit of PKA
in vitro kinase assay ([γ-32P]ATP, PhosphorImager) [4]: the intracellular domain of LRP5 was not phosphorylated | in vitro kinase assay ([γ-32P]ATP, PhosphorImager) [2]: Only alteration of Thr^1548 abolished the phosphorylation of LRP6C by PKA | in vitro kinase assay ([γ-32P]ATP, PhosphorImager) [3]: the intracellular domain of LRP6 (LRP6C) was phosphorylated by PKA

[F][Al-]([F])([F])[F] [AlF4^−]
interaction of LRP6 with Gαs (LRP6-Gαs interaction; [6]): blocked | interaction of LRP6 with Gβ1 (LRP6-Gαs interaction; [6]): blocked

PTH(1-34): a C-terminal-truncated synthetic analog of PTH that has an anabolic effect on bone formation in humans (SVSEIQLMHNLGKHLNSMERVEWLRKKLQDVHNF)
interaction between Gαs and LRP6 (LRP6-Gαs interaction; HEK 293 cells with PTH1R and VSVG-tagged LRP6, PTH(1-34) 50 nM, within S min of treatment, further enhanced at 30 min): enhanced | time to plateau of the cyan-to-yellow emission ratio (cAMP production): 4 to 6 min | time to rapid change in the ratio of cyan-to-yellow emissions (indication of cAMP production) (cAMP production): ≤ 30 s | association of Gαs with LRP5 (LRP5-Gαs interaction): did not enhance

B1: Gαs (endogenous, from HEK 293 cell lysates) (other, human, UniProt P63092 2-394, looked up)
chain: GCLGNSKTEDQRNEEKAQREANKKIEKQLQKDKQVYRATHRLLLLGAGESGKSTIVKQMRILHVNGFNGEGGEEDPQAARSNSDGEKATKVQDIKNNLKEAIETIVAAMSNLVPPVELANPENQFRVDYILSVMNVPDFDFPPEFYEHAKALWEDEGVRACYERSNEYQLIDCAQYFLDKIDVIKQADYVPSDQDLLRCRVLTSGIFETKFQVDKVNFHMFDVGGQRDERRKWIQCFNDVTAIIFVVASSSYNMVIREDNQTNRLQEALNLFKSIWNNRWLRTISVILFLNKQDLLAEKVLAGKSKIEDYFPEFARYTTPEDATPEPGEDPRVTRAKYFIRDEFLRISTASGDGRHYCYPHFTCAVDTENIRRVFNDCRDIIQRMHLRQYELL
notes: Present in whole-cell lysate, so other proteins (Gβγ) may be associated with it; also called Gas; αs subunit of the G protein
binding result [5]: binds
